From publication PMC9589286, “Ruthenium polypyridine complexes with triphenylamine groups as antibacterial agents against Staphylococcus aureus with membrane-disruptive mechanism” (Frontiers in Chemistry, 2022) come the findings set out here.

Data set [1] concerns Staphylococcus aureus. The experiment in a line: MIC by microdilution in TSB broth. The conditions noted are these: S. aureus, 37°C, 20 h. Type of data set: cell-based. The method, then: Antibacterial activity was evaluated by measuring MIC (minimum inhibitory concentration) and MBC (minimum bactericidal concentration) values. The MIC value was measured by the microdilution method using TSB broth with 96 well plates ([Carlsen et al., 1981]) and the MBC value was determined by LB plates. In brief, the overnight cultured bacteria were 1: 1000 diluted with fresh medium to get a bacterial suspension. After incubation at 37°C for 20 h, the growth of bacteria is monitored by observing the turbidity of the culture. The bacterial solution was diluted as above method and the complexes were incubated with bacterial solution for 2 h. Then 100 μL bacterial solution was taken for plate coating. The Staphylococcus aureus growth inhibition trend in the presence of complexes was obtained. The MBC values of complexes were determined by LB plates after culturing in the same method for 24 h. All experiments were controlled with sterile water and repeated in parallel at least three times.
Background: Broth dilution looks for growth in wells or tubes with falling amounts of substance.

Data set [2] is described as follows: Partition coefficient, shake flask 1-octanol/PBS. Type of data set: physicochemical. As to the method: The partition coefficients of all complexes were determined by standard shake flask method in 1-octanol and buffer liquid system ([Yang et al., 2021]). In brief, the octanol/water partition coefficient is obtained by the incubation of 2 ml of 25 μg ml^−1 ruthenium complex 1-octanol and 2 ml PBS samples. After shaking the solution for 6 h, the samples were stood for 2 h. The absorbance of octanol complex at 282 nm before and after oscillation was measured. The absorbance of 1-octanol before oscillation minus the absorbance of 1-octanol after oscillation is the absorbance of the complex in water. Each experiment was repeated three times. The partition coefficient is reported as the number of octanol divided by the number of water.

The test system of data set [3] is Staphylococcus aureus biofilm. The experiment in a line: Biofilm formation, crystal violet staining. Type of data set: cell-based. As to the method:
24 well plate was used for biofilm determination. The overnight cultured Staphylococcus aureus strain was diluted 1000 times with fresh TSB medium. Then 2 ml of that diluted bacterial solution was mixed with 500 µL Ru-3 of different concentrations in a 24 well plate. After incubation at 37°C for 48 h, the bacterial suspension was removed and the plate was washed three times with PBS. The adherent bacteria were dried overnight at 37°C and then dyed through 0.1% crystal violet solution. After 2 min, taking out the crystal violet solution and wash the plate with PBS again. And then, adding 1 ml acetic acid and 1 ml water, the formation of biofilm can be determined by monitoring the absorbance at 595 nm.

For the next data set, the system named is Galleria mellonella. The experiment in a line: Toxicity in insect model Galleria mellonella. Conditions: 64 mg kg^−1, larvae, 120 h. The format is in vivo. As to the method: Based on the excellent antibacterial effect of Ru-3 in vitro, its biosafety was further evaluated. Firstly, the hemolytic activity of ruthenium complexes on rabbit red blood cells was measured to study their toxicity. […] In view of its good compatibility with mammalian red blood cells, the toxicity of Ru-3 to eukaryotes was also studied. Herein, Ru-3 was tested with Gallery melonella larvae. […] When the concentration of Ru-3 was 64 mg kg^−1, the survival rate was still 75%.
FIGURE 15 Test results of Ru compounds toxicity (A) % hemolysis at 256 μg ml^−1 of Ru compounds. (B) Kaplan-Meier survival curves. […] The larvae were incubated at 37.5°C and live/dead scores were conducted at 120 h (C) H&E staining images of the infected tissues with different treatments.

Data set [4] concerns Staphylococcus aureus. The experiment in a line: In vivo antibacterial activity, mouse skin infection model. Also noted: species or system mice. Conditions: cream with 50 μg ml^−1, 4 times a day, after 4 days. The method, then: S. aureus was cultured in TSB medium to exponential phase. Bacterial precipitates were collected and washed with PBS three times by centrifugation, which was diluted to OD600 = 1 (1.02 × 10^8 CFU/ml) with sterile normal saline. The day before the infection, the hair on the back of the mice was shaved off. Then depilatory cream (Veet®) was used to remove the remaining hair. Subsequently, 100 μL S. aureus was injected in subcutaneous and the abscess formed after 12 h later. All mice infected with S. aureus were divided into two groups (n = 5 in each group), including control group and treatment group, Ru-3 (0.05 mg ml^−1), which was fully mixed in sterile cream. Afterwards, mouse abscesses were treated with creams containing Ru-3 4 times a day. After 10 days, the experiment was ended. The study was conducted in strict accordance with NIH guidelines for the care and use of laboratory animals (NIH Publication No. 85–23, revised in 1985), and was reviewed and approved by the institutional animal care and use Committee of Guangxi Normal University (Guilin, China).

Data set [5] deals with Staphylococcus aureus. The experiment in a line: Membrane permeability, ONPG hydrolysis. Type of data set: cell-based. The conditions noted are these: Ru-3 2 or 4 μg/ml vs vancomycin 2 μg/ml. The method, then: O-nitrobenzene-β-D-galactopyranoside (ONPG) was the substrate of intracellular ß-galactosidase, that was used to determine the permeability of Staphylococcus aureus cell membrane. Staphylococcus aureus was cultured to logarithmic phase, then washed and cultured in M9 lactose medium, in which lactose was used as the only carbon source of a single colony and stayed overnight at 37°C. After washing three times with PBS, the culture was diluted to OD600 = 0.3 (PBS). […] The hydrolysis of ONPG to o-nitrophenol over time was monitored by UV every 15 min at 415 nm. A similar procedure was used for untreated cells as control ([Xuan et al., 2021]).

For data set [6], the system named is Staphylococcus aureus. The experiment in a line: DiSC3(5) and DAPI/PI fluorescence staining. The conditions noted are these: 4 μg ml^−1, 2 h. Type of data set: cell-based. The method, then: Firstly, S. aureus was cultured in TSB medium to exponential phase. Exponential growth bacteria were collected by centrifugation at 5000 rpm for 2 min, then washed with PBS and diluted to OD600 value of 0.3. Secondly, Ru-3 (4 μg ml^−1) was added to the bacterial suspension solution and incubated at 37°C for 2 h, then the supernatant was removed by centrifuging. Thirdly, the bacterial was washed with PBS for three times and suspendedin 500 μL PBS. Subsequently, adding 20 μL DiSC3(5) (30 μM), incubating for 1 h under dark conditions. For DAPI and PI, adding 20 μL DAPI (10 μg ml^−1), incubating for 15 min under dark conditions. Next, adding 20 μL PI (15 μg ml^−1) in the same tube, and incubating for 15 min under dark conditions. After that, centrifuge, removing the supernatant. Eventually, suspending with 500 uL PBS and 20 μL samples were transfered on glass slides and observed under fluorescent cell imager.

As usually defined, the MIC is the lowest concentration that inhibits growth of the organism. Read a high MIC as weaker potency. Take [Ru(dmb)2PMA] (PF6)2 [Ru-3]: in the data set with Staphylococcus aureus [1], the MIC turned out to be 4 µg/mL. Moreover, in data set [2], the LgP is 1.79 and the logD o/w entry was “ca. 1.7885”. Further, the “biofilm formation reduced by” value in data set [3] (1 μg ml^−1, 48 h) came out at 27%. Moreover, the “Nomalized Biofilm formation” value in data set [3] (1 μg/mL) was determined as 73%. In data set [3] (2 μg ml^−1, 48 h), the “biofilm formation reduced by” value is 41%. Besides, the “Nomalized Biofilm formation” value in data set [3] (2 μg/mL) was 59%. This substance also came in with a survival rate in the data set with Galleria mellonella of 75%. Besides, in the data set with Staphylococcus aureus [4], the “degree of wound healing” value is given as “increased significantly”. Further, the “plasma membrane permeability (ONPG)” value in the data set on Staphylococcus aureus [5] is “better membrane permeability”. For the same substance, in the data set with Staphylococcus aureus [6], the DAPI/PI fluorescence entry was “blue and red fluorescence”; the “membrane depolarization, DiSC3(5) fluorescence” value is “strong green fluorescence”.
